From patent US20250282827A1, “LIPIDATED POLYMYXIN ANALOGUES” (priority 2021, published 2025) come the findings set out here.

Data set [1] relates to carbapenem-resistant Acinetobacter baumannii (CRAB). Type of data set: cell-based. From the text: (§1) Given the promising antimicrobial activity and low toxicity associated with compounds 29, 35 and to a lesser extent 38, these compounds were progressed to a further round of phenotypic antimicrobial susceptibility testing using a panel of clinically relevant multidrug resistant Gram-negative pathogens. This panel included isolates phenotypically characterised as carbapenem-resistant Enterobacteriacea (CRE), extended spectrum β-lactamase (ESBL) producing Enterobacteriacea, colistin-resistant E. coli, carbapenem-resistant Acinetobacter baumannii (CRAB) or carbapenem-resistant Pseudomonas aeruginosa (CRPA). These isolates were chosen because each was resistant to multiple different families of clinically used antibiotics making treatment options limited and importantly, each of these pathogen types are recognised as “Priority 1: CRITICAL” on the World Health Organization (WHO) priority pathogen list for R&D of new antibiotics. Antimicrobial activity against any of these pathogens would therefore be of clinical importance. […] However, we note that many of the compounds tested in Example 4 did show good activity against colistin-resistant E. coli.

The test system of data set [2] is carbapenem-resistant Enterobacteriacea (CRE). Type of data set: cell-based.
Text: as §1

The test system of data set [3] is carbapenem-resistant Pseudomonas aeruginosa (CRPA). Type of data set: cell-based.
Text: as §1

The subject of another data set is A. baumannii ATCC 19606. Type of data set: cell-based, Acinetobacter baumannii. From the text: (§2) All 81 compounds prepared in Examples 2 and 3 underwent screening against a panel of Gram-negative bacterium to assess their ability to inhibit bacterial growth. […] The median value is presented.
The test system of another data set is P. aeruginosa ATCC 27853. It is filed as cell-based, Pseudomonas aeruginosa.
Text: as §2

Data set [4] has as its system colistin-resistant E. coli. It is filed as cell-based, Escherichia coli.
Text: as §1

In the next data set the test system is Vero cell line. The experiment in a line: Cellular toxicity against Vero cell line. Type of data set: cell-based. On the procedure: (§3) FIG. 6 is a graph showing cell survival as a function of the indicated compound concentration. Data are representative of triplicate experiments.
(§4) To evaluate if the ClipPA modifications introduced any new toxicity, inhibitory concentrations against Vero and HaCaT cell lines were determined. […] The standard error for each measurement is shown.

Data set [5] has as its system K. pneumoniae ATCC MS6671. It is filed as cell-based, Klebsiella pneumoniae.
Text: as §2

A further data set relates to K. pneumoniae ATCC 33495. Type of data set: cell-based, Klebsiella pneumoniae.
Text: as §2

Data set [6] relates to K. pneumoniae ATCC 700603. It is filed as cell-based, Klebsiella pneumoniae.
Text: as §2

A further data set concerns E. coli ATCC MS8345. It is filed as cell-based, Escherichia coli.
Text: as §2
Expansion of the polymyxin macrocycle by substituting […]) offered little advantage in antimicrobial activity but was generally well tolerated although for A. baumanni and P. aeruginosa this was detrimental.

Another data set concerns HaCaT cell line. The experiment in a line: Cellular toxicity against HaCaT cell line. Type of data set: cell-based. The protocol: as §3, §4
The next data set deals with E. coli ATCC 25922. It is filed as cell-based, Escherichia coli.
Text: as §2

In data set [7] the test system is extended spectrum β-lactamase (ESBL) producing Enterobacteriacea. Type of data set: cell-based.
Text: as §1

Data set [8] relates to kidney organoids derived from human induced pluripotent stem cells. Nature of the data set: Nephrotoxicity on kidney organoids, renal tubule deterioration by bright field imaging. Note: key: 1 = unaffected; 2 = mild deterioration; 3 = severe deterioration; 4 = complete deterioration. Type of data set: cell-based. Particulars: scored after 48 h. The protocol: Selected polymyxin analogues were evaluated for cytotoxicity in physiologically relevant human kidney tissue, using kidney organoids derived from human induced pluripotent stem cells (Soo et al. 2018). Monolipidated analogues 29, 31, 33, containing a propyl, decyl or phenyl lipid, dilapidated compounds, 35, 38, 39, containing a propyl, tert-butyl or phenyl, lipid, respectively and the N-capped, di-lipidated (phenyl) 49 were selected.
The control compound polymyxin B and the seven ClipPA analogues were tested by adding a range of concentrations (based on Gallado-Godoy et al. 2016) to the organoids at day 12 of the protocol, shown previously to correspond to optimal maturity of the organoid tissues.
Toxicity was scored after 48 h for signs of renal tubule deterioration visible by bright field imaging (not shown).

In brackets after ≈: the same amount, converted by molar mass. Like-named read-outs stand apart in the source and are kept apart here. Positions of bridges follow the written chain, without caps; N, C: chain ends. Non-standard residues stand in square brackets, D forms with d. Residues, ends and D or L forms follow the SMILES beside them. *: point of attachment. Ethyl(2-propionyloxy) = CCC(=O)OCC*; Dab = NCC[C@H](N)C(=O)O

Take `CCC(=O)OCCSC[C@H](N)C(=O)N[C@@H](CCN)C(=O)N[C@H](C(=O)N[C@@H](CCN)C(=O)N[C@H]1CCNC(=O)[C@H]([C@@H](C)O)NC(=O)[C@H](CCN)NC(=O)[C@H](CCN)NC(=O)[C@H](CC(C)C)NC(=O)[C@@H](Cc2ccccc2)NC(=O)[C@H](CCN)NC1=O)[C@@H](C)O` [Compound 29] (H-C(Ethyl(2-propionyloxy))[Dab]T[Dab][Dab][Dab][dF]L[Dab][Dab]T; lactam 5-C): the MIC in [1] (carbapenem-resistant (CRAB)) was 4 µg/mL (≈ 3.16 µM); in data set [2] (E. cloacae, IMP-4) it was 2 µg/mL (≈ 1.58 µM); in data set [2] (E. coli, NDM-1), 2 µg/mL (≈ 1.58 µM); in data set [2] (K. pneumoniae, KPC-2), 2 µg/mL (≈ 1.58 µM); in data set [2] (K. pneumoniae, NDM-5), 2 µg/mL (≈ 1.58 µM); in data set [3] (carbapenem-resistant (CRPA)) it was greater than 32 µg/mL. Besides, the MIC in data set [4] (colistin-resistant) was greater than 32 µg/mL. The “MIC A. baumannii ATCC 19606” value with A. baumannii ATCC 19606 (ATCC 19606) worked out at 2 µg/mL (≈ 1.58 µM). Further, the “MIC P. aeruginosa ATCC 27853” value against P. aeruginosa ATCC 27853 (ATCC 27853) was found to be 2 µg/mL (≈ 1.58 µM). In the data set on Vero cell line, the “IC50 Vero” value stood at 2422 ± 38.98 µg/mL (≈ 1910 µM). The “amount required to cause inhibition” value with Vero cell line and in the data set on HaCaT cell line was greater than 500 µg/mL throughout. Moreover, in the data set with Vero cell line, the “fold less toxic towards Vero than Colistin or Polymyxin B” value is on record as roughly 2.5 fold. Besides, the “MIC K. pneumoniae ATCC MS6671” value in data set [5] (ATCC MS6671) was greater than 32 µg/mL. In addition, in the data set on K. pneumoniae ATCC 33495 (ATCC 33495), the “MIC K. pneumoniae ATCC 33495” value was 0.125 µg/mL (≈ 0.0987 µM). Besides, the “MIC K. pneumoniae ATCC 700603” value in [6] (ATCC 700603) came out at 0.5 µg/mL (≈ 0.395 µM). For the same molecule, in the data set with E. coli ATCC MS8345 (ATCC MS8345), the “MIC E. coli ATCC MS8345” value is 32 µg/mL (≈ 25.3 µM). For the same molecule, the “IC50 HaCaT” value in the data set with HaCaT cell line turned out to be 2534 ± 169.2 µg/mL (≈ 2000 µM). Further, the “inhibitory effects against HaCaT compared with Colistin or Polymyxin B” value in the data set with HaCaT cell line was “comparable”. Further, the “MIC E. coli ATCC 25922” value against E. coli ATCC 25922 (ATCC 25922) is 2 µg/mL (≈ 1.58 µM).

Take `CCC(=O)OCCSC[C@@H]1NC(=O)[C@@H](Cc2ccccc2)NC(=O)[C@H](CCN)NC(=O)[C@@H](NC(=O)[C@H](CCN)NC(=O)[C@@H](NC(=O)[C@H](CCN)NC(=O)[C@@H](N)CSCCOC(=O)CC)[C@@H](C)O)CCNC(=O)[C@H]([C@@H](C)O)NC(=O)[C@H](CCN)NC(=O)[C@H](CCN)NC1=O` [Compound 35] (H-C(Ethyl(2-propionyloxy))[Dab]T[Dab][Dab][Dab][dF]C(Ethyl(2-propionyloxy))[Dab][Dab]T; lactam 5-C): the minimum inhibitory concentration (MIC) is 8 µg/mL (≈ 5.9 µM) in [1] (carbapenem-resistant (CRAB)); 2 µg/mL (≈ 1.47 µM) in [2] (E. cloacae, IMP-4); 2 µg/mL (≈ 1.47 µM) in data set [2] (E. coli, NDM-1); 4 µg/mL (≈ 2.95 µM) in data set [2] (K. pneumoniae, KPC-2); 4 µg/mL (≈ 2.95 µM) in data set [2] (K. pneumoniae, NDM-5); greater than 32 µg/mL in [3] (carbapenem-resistant (CRPA)). This molecule showed an MIC in [4] (colistin-resistant) greater than 32 µg/mL. Besides, the “MIC A. baumannii ATCC 19606” value in the data set with A. baumannii ATCC 19606 (ATCC 19606) was found to be 32 µg/mL (≈ 23.6 µM). For the same molecule, in the data set with P. aeruginosa ATCC 27853 (ATCC 27853), the “MIC P. aeruginosa ATCC 27853” value is greater than 32 µg/mL. The “MIC K. pneumoniae ATCC MS6671” value in [5] (ATCC MS6671) was greater than 32 µg/mL. In the data set on K. pneumoniae ATCC 33495 (ATCC 33495), the “MIC K. pneumoniae ATCC 33495” value lay within 1 to 2 µg/mL. The “MIC K. pneumoniae ATCC 700603” value in [6] (ATCC 700603) is 1 µg/mL (≈ 0.737 µM). Also, the “MIC E. coli ATCC MS8345” value against E. coli ATCC MS8345 (ATCC MS8345) was greater than 32 µg/mL. For the same molecule, the “MIC E. coli ATCC 25922” value against E. coli ATCC 25922 (ATCC 25922) amounted to 0.5 µg/mL (≈ 0.369 µM).

Polymyxin B [PMB, reference compound]: the MIC in data set [1] (A. baumannii, CRAB, OXA-23) worked out at 1 µg/mL; in data set [2] (E. cloacae, IMP-4), 1 µg/mL; in data set [2] (E. coli, NDM-1) it was 1 µg/mL; in data set [2] (K. pneumoniae, KPC-2), 2 µg/mL; in [2] (K. pneumoniae, NDM-5), 2 µg/mL; in data set [3] (P. aeruginosa, CRPA, VIM-2), 8 µg/mL. For the same molecule, the minimum inhibitory concentration (MIC) was 1 µg/mL in data set [7] (E. coli, CTX-M-15); 2 µg/mL in data set [7] (S. enterica, CTX-M-55); 8 µg/mL in data set [4] (E. coli, CR (colistin-resistant), MCR-1). The “susceptibility of CRPA in words” value in data set [3] (in words) was “resistant”. In addition, the “MIC A. baumannii ATCC 19606” value in the data set with A. baumannii ATCC 19606 (median of triplicate) amounted to 0.5 µg/mL. For the same molecule, the “MIC P. aeruginosa ATCC 27853” value against P. aeruginosa ATCC 27853 (median of triplicate) was 0.25 µg/mL. In addition, in data set [4] (in words), the “susceptibility of colistin-resistant E. coli in words” value is given as “resistant”. The figures for the “Score (nephrotoxicity on kidney organoids)” value in data set [8] (100 μM), in [8] (300 μM) and in data set [8] (1 mM) were 2, 3 and 4, respectively. For the same molecule, the “IC50 Vero” value with Vero cell line (Vero cell line, ± standard error) was determined as 939.0 ± 63.32 µg/mL. The “MIC K. pneumoniae ATCC MS6671” value in data set [5] (median of triplicate) is greater than 32 µg/mL. Further, the “MIC K. pneumoniae ATCC 33495” value against K. pneumoniae ATCC 33495 (median of triplicate) is 0.5 µg/mL. Moreover, in [6] (median of triplicate), the “MIC K. pneumoniae ATCC 700603” value came to 0.25 µg/mL. In addition, in the data set with E. coli ATCC MS8345 (colistin-resistant strain, median of triplicate), the “MIC E. coli ATCC MS8345” value was found to be 4 µg/mL. Besides, the “IC50 HaCaT” value with HaCaT cell line (HaCaT cell line, ± standard error) was determined as 1998 ± 27.74 µg/mL. Moreover, the “MIC E. coli ATCC 25922” value with E. coli ATCC 25922 (median of triplicate) is 0.25 µg/mL.

In general, MIC refers to the least concentration at which growth counts as inhibited.
